Source: patent publication US20030040456A1, “Method and apparatus for cleaning article” (priority 2000, published 2003)

Tests used:
[1] = solubility of the organic solvents in water at 60° C.; type: physicochemical
Protocol: The organic solvent having high compatibility with oil is preferably a polar organic solvent as described above because excellent cleanability can be obtained. The polar organic solvent is particularly preferably an organic solvent having low compatibility with water, specifically solubility in water at 60° C. of 50 vol % or less, preferably 30 vol % or less. More specifically, the polar organic solvent is preferably selected from a propylene glycol alkyl ether-based compound represented by the following formula (I): [drawing 1]
Compatibility with water means ability of mixing with water in any ratio at 60° C.
(§1) The organic solvents and surfactants used in examples and comparative examples are given below.

[2] = solubility of the organic solvents in castor oil at 30° C.; type: physicochemical
Protocol: In the present invention, the organic solvent having high compatibility with oil is an organic solvent having high compatibility with oil adhered to an article to be cleaned, preferably an organic solvent which can be mixed with castor oil (Japanese Pharmacopoeia Act) as a typical example of the oil and standard oil in any ratio at 30° C. Preferred examples of the organic solvent having high compatibility with such oil include paraffin-based hydrocarbons such as dodecane, undecane and tridecane, naphthene-based hydrocarbons and polar organic solvents. Out of these, polar organic solvents are preferred. The polar organic solvents are preferably organic solvents having a dielectric constant of 8 or more, preferably 10 or more, such as glycol ether-based compounds, pyrrolidone-based compounds and imidazolidinone-based compounds. As the glycol ether-based compounds may be used ethylene glycol-based compounds but preferred are propylene glycol alkyl ether-based compounds.
as §1

Q: For “dipropylene glycolmonomethyl ether [DPM]”, which “solubility in water (in words)” value [1] is on record?
A: infinitely soluble

Q: What about the “solubility in castor oil” value [2] of the same molecule?
A: infinitely soluble

Q: What does the source list for CN1CCN(C)C1=O [DMI, 1,3-dimethyl-2-imidazolidinone]?
A: solubility in water (in words) [1]: infinitely soluble; solubility in castor oil [2]: infinitely soluble

Q: With CCCCOCC(C)O (stereo not drawn) [PB, propylene glycol monobutyl ether] as the molecule, how does the solubility in water [1] read?
A: 6 vol %

Q: And the “solubility in castor oil” value [2]?
A: infinitely soluble

Q: For CCCCCCCCCCCCCC [TD, n-tetradecane], which solubility in water [1] is on record?
A: less than 1 vol %

Q: What about the “solubility in castor oil” value [2] of the same molecule?
A: infinitely soluble

Q: Which results are given for CCCOC(C)COC(C)CO (stereo not drawn) [DPP, dipropylene glycol monopropyl ether]?
A: solubility in water [1]: 10 vol %; solubility in castor oil [2]: infinitely soluble

Q: Which “solubility in water (in words)” value [1] does the source give for CN1CCCC1=O [NMP, N-methylpyrrolidone] here?
A: infinitely soluble

Q: And the “solubility in castor oil” value [2]?
A: infinitely soluble
